Experimental data taken from patent US9302991B2, “Arylamide derivatives as TTX-S blockers” (RaQualia Pharma Inc., priority 2010, dated 2016).

target: T1, human Nav1.7 channels (Homo sapiens, UniProt Q15858); test: FRET assay, human Nav1.7 (EFS on FDSS); format: cell-based; conditions: CHO cells expressing human Nav1.7, read-out: IC50 against Nav1.7
T1 construct: expressed in transfected cells; host or cells: CHO
Description: The inhibitory activities of compounds against voltage gated sodium channels are determined by methodology well known in the art.
The ability of the aryl substituted carboxamide derivatives of the formula (I) to inhibit the NaV1.3, Nav1.7 and Nav1.5 channels is measured by Fluorescence Resonance Energy Transfer (FRET) assay and electrophysiology assay described below.
This screen is used to determine the effects of compounds on human Nav1.3, human Nav1.7, and human Nav1.5 channels, utilising electrical field stimulation (EFS) system in 96-well plate format on FDSS (Hamamatsu Photonics) platform. The change of membrane potential is monitored with FRET dye pair, oxonol (DiSBAC2(3)) and coumarin (CC2-DMPE).
CHO cells expressing human Nav1.7 channels are grown in T225 flasks, in a 5% CO2 humidified incubator to about 80% confluence. Media composition consists of HAM/F12 with Glutamax 1.10% FCS, 100 units/mL Penicillin and 100 microgram/mL Hygromycin.
Protocol: • Seed each cell lines (1×10^5 cells/well) into poly-D-lysine coated 96-well plates prior to experimentation. • Incubate at 37° C. in 5% CO2 for 24 hours. • Wash each well with assay buffer (140 mM NaCl, 4.5 mM KCl, 10 mM D-Glucose, 2 mM CaCl2, 1 mM MgCl2, 10 mM HEPES, pH 7.4 adjusted with NaOH) twice. • Add 1st loading solution containing 10 microM CC2-DMPE and 0.06% Pluronic F-127 in assay buffer. • Incubate the plate at room temperature in dark for 1 hour. • Remove 1st loading solution and added 2nd loading solution containing 15 microM DiSBAC2(3), 0.555 mM VABSC-1 and 0.004% Pluronic F-127 in assay buffer. • Place the plate under the dark at room temperature for 25 minutes. • Add compound solutions into the assay plate. • Set the assay plate in FDSS and placed an EFS device on the plate. • Measure EFS-induced fluorescent response by FDSS.
The data are analyzed and reported as normalized ratios of intensities measured at […]. The process of calculating these ratios is performed as follows:
This analysis is performed using a computerized specific program designed for FDSS generated data. Fluorescence ratio values are plotted using XLfit to determine an IC50 value for each compound.

T1 sequence (Q15858 whole entry): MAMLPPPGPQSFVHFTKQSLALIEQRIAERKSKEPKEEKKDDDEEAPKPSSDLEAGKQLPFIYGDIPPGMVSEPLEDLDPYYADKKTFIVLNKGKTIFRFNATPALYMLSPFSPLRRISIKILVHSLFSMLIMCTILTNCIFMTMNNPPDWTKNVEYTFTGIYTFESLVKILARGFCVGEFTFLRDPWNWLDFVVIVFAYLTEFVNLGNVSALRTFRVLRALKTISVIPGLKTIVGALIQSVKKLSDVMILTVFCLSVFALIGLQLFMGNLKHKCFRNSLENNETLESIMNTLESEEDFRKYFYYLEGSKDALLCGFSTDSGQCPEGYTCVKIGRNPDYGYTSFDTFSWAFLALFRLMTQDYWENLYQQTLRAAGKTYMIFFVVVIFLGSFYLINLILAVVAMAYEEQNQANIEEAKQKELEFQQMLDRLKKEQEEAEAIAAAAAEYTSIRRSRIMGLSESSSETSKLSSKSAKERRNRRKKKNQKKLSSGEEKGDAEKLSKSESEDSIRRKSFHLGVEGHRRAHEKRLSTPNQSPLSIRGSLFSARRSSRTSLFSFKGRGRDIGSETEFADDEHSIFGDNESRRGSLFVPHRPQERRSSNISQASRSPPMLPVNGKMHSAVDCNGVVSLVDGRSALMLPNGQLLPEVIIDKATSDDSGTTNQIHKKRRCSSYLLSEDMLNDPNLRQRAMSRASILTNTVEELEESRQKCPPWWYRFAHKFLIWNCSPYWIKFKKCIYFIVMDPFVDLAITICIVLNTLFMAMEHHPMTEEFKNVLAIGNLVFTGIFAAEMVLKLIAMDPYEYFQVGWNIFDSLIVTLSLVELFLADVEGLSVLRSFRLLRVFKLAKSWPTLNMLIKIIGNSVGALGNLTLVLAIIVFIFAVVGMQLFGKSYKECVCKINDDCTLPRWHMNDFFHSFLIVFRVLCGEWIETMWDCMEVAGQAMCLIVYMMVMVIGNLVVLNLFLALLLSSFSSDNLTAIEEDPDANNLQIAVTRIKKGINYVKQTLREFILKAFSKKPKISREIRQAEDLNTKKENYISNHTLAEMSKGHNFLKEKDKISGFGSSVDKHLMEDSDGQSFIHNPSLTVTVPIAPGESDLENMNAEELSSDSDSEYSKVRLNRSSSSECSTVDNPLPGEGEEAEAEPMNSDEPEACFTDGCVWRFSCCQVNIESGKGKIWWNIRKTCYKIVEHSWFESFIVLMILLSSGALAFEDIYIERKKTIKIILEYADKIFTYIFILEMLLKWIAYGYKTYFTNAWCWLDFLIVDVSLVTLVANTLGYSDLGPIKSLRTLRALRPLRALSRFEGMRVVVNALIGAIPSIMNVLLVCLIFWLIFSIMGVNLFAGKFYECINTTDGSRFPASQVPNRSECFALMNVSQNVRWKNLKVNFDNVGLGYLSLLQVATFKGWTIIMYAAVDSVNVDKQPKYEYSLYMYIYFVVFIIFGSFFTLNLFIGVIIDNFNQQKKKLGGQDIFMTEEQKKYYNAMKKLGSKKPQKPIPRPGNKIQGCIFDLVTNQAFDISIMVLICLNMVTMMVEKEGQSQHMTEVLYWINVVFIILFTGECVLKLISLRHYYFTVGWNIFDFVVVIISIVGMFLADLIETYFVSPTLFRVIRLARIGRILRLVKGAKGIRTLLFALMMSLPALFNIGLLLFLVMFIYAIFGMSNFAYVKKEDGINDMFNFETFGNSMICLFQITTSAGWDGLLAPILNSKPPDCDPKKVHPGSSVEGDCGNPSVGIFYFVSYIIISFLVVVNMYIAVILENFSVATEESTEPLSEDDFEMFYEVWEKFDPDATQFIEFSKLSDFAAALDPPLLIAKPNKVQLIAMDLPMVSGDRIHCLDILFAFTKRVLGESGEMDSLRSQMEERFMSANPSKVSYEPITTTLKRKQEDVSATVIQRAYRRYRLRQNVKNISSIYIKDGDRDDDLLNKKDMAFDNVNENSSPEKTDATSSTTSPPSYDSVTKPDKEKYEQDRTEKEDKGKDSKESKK

Row | IC50 | Structure (SMILES)
1 | < 1 µM | CC(=O)Nc1nccc(C(=O)NC(C)c2cnc(OCC(F)(F)F)c(C)c2)n1 (single isomer, unassigned) [Example 234, 2-acetamido-N-(1-(5-methyl-6-(2,2,2-trifluoroethoxy)pyridin-3-yl)ethyl)pyrimidine-4-carboxamide]
2 | < 1 µM | CCC(=O)Nc1cc(C(=O)NCc2ccc(O[C@H](C)C(F)(F)F)nc2)ccn1 (single isomer, unassigned) [Example 316]
3 | < 1 µM | CCC(=O)Nc1cc(C(=O)NCc2ccc(O[C@H](C)C(F)(F)F)nc2)cc(C)n1 (single isomer, unassigned) [Example 318]
4 | < 1 µM | CC(C)C(=O)Nc1cc(C(=O)NCc2ccc(O[C@H](C)C(F)(F)F)nc2)ccn1 (single isomer, unassigned) [Example 319]
5 | < 1 µM | CC(=O)Nc1cc(C(=O)NCc2ccc(O[C@H](C)C(F)(F)F)nc2)cc(C)n1 (single isomer, unassigned) [Example 320]
6 | < 1 µM | COc1cc(C(C)NC(=O)c2cc(C)nc(NC(C)=O)c2)cnc1OCC(F)(F)F (single isomer, unassigned) [Example 330, 2-acetamido-N-(1-(5-methoxy-6-(2,2,2-trifluoroethoxy)pyridin-3-yl)ethyl)-6-methylisonicotinamide]
7 | < 1 µM | CCCC(=O)Nc1cc(C(=O)NC(C)c2cnc(OCC(F)(F)F)c(OC)c2)ccn1 (single isomer, unassigned) [Example 331, 2-butyramido-N-(1-(5-methoxy-6-(2,2,2-trifluoroethoxy)pyridin-3-yl)ethyl)isonicotinamide]
8 | < 1 µM | Cc1cc(C(C)NC(=O)c2ccnc(NC(=O)C(C)C)c2)cnc1OCC(F)(F)F (single isomer, unassigned) [Example 378, 2-isobutyramido-N-(1-(5-methyl-6-(2,2,2-trifluoroethoxy)pyridin-3-yl)ethyl)isonicotinamide]
9 | < 1 µM | CC(=O)Nc1cc(C(=O)NC(C)c2cnc(OCC(F)(F)F)c(C)c2)cc(C)n1 (single isomer, unassigned) [Example 379, 2-acetamido-6-methyl-N-(1-(5-methyl-6-(2,2,2-trifluoroethoxy)pyridin-3-yl)ethyl)isonicotinamide]
10 | < 1 µM | CC(=O)Nc1cc(C(=O)N(C)C(C)c2cnc(OCC(F)(F)F)c(C)c2)cc(C)n1 (single isomer, unassigned) [Example 391, 2-acetamido-N,6-dimethyl-N-(1-(5-methyl-6-(2,2,2-trifluoroethoxy)pyridin-3-yl)ethyl)isonicotinamide]
11 | < 1 µM | CC(=O)Nc1cc(C(=O)N(C)C(C)c2cnc(OCC(F)(F)F)c(C)c2)ccn1 (single isomer, unassigned) [Example 392, 2-acetamido-N-methyl-N-(1-(5-methyl-6-(2,2,2-trifluoroethoxy)pyridin-3-yl)ethyl)isonicotinamide]
12 | < 1 µM | COc1cc(C(C)NC(=O)c2ccnc(NC(=O)C3CC3)n2)cnc1OCC(F)(F)F (single isomer, unassigned) [Example 400, 2-(cyclopropanecarboxamido)-N-(1-(5-methoxy-6-(2,2,2-trifluoroethoxy)pyridin-3-yl)ethyl)pyrimidine-4-carboxamide]
13 | < 1 µM | CC(NC(=O)c1ccnc(NC(=O)C2CC2)n1)c1ccc(OCC(F)(F)F)cc1 (single isomer, unassigned) [Example 405, 2-(cyclopropanecarboxamido)-N-(1-(4-(2,2,2-trifluoroethoxy)phenyl)ethyl)pyrimidine-4-carboxamide]
14 | < 1 µM | CC(C)C(=O)Nc1cc(C(=O)NC(C)c2cccc(OC(F)(F)F)c2)ccn1 (single isomer, unassigned) [Example 418, 2-isobutyramido-N-(1-(3-(trifluoromethoxy)phenyl)ethyl)isonicotinamide]
15 | < 1 µM | CC(=O)Nc1cc(C(=O)NC(C)c2cccc(OC(F)(F)F)c2)cc(C)n1 (single isomer, unassigned) [Example 420, 2-acetamido-6-methyl-N-(1-(3-(trifluoromethoxy)phenyl)ethyl)isonicotinamide]
16 | < 1 µM | Cc1cc(C(=O)NC(C)c2cccc(OC(F)(F)F)c2)cc(NC(=O)C(C)(C)O)n1 (single isomer, unassigned) [Example 421, 2-(2-hydroxy-2-methylpropanamido)-6-methyl-N-(1-(3-(trifluoromethoxy)phenyl)ethyl)isonicotinamide]
17 | < 1 µM | C=CC(=O)Nc1cc(C(=O)NC(C)c2ccc(OCC(F)(F)F)nc2)cc(C)n1 (single isomer, unassigned) [Example 482, 2-acrylamido-6-methyl-N-(1-(6-(2,2,2-trifluoroethoxy)pyridin-3-yl)ethyl)isonicotinamide]
18 | < 1 µM | Cc1cc(C(=O)NC(C)c2cnc(OCC(F)(F)F)c(F)c2)cc(NC(=O)C(C)C)n1 (single isomer, unassigned) [Example 486, N-(1-(5-fluoro-6-(2,2,2-trifluoroethoxy)pyridin-3-yl)ethyl)-2-isobutyramido-6-methylisonicotinamide]
19 | < 1 µM | COc1cc(C(C)NC(=O)c2cc(C)nc(NC(=O)C(C)C)c2)cnc1OCC(F)(F)F (single isomer, unassigned) [Example 487, 2-isobutyramido-N-(1-(5-methoxy-6-(2,2,2-trifluoroethoxy)pyridin-3-yl)ethyl)-6-methylisonicotinamide]
20 | < 1 µM | Cc1cc(C(=O)NC(C)c2cnc(OCC(F)(F)F)c(Cl)c2)cc(NC(=O)C(C)C)n1 (single isomer, unassigned) [Example 521, N-(1-(5-chloro-6-(2,2,2-trifluoroethoxy)pyridin-3-yl)ethyl)-2-isobutyramido-6-methylisonicotinamide]
21 | < 1 µM | CC(C)C(=O)Nc1cc(C(=O)NC(C)c2cnc(OCC(F)(F)F)c(Cl)c2)ccn1 (single isomer, unassigned) [Example 522, N-(1-(5-chloro-6-(2,2,2-trifluoroethoxy)pyridin-3-yl)ethyl)-2-isobutyramidoisonicotinamide]
22 | < 1 µM | CC(=O)Nc1cc(C(=O)N[C@H](C)c2cccc(C(F)(F)F)c2)cc(C)n1 (single isomer, unassigned) [Example 529]
23 | < 1 µM | CC(C)C(=O)Nc1cc(C(=O)N[C@H](C)c2cccc(C(F)(F)F)c2)ccn1 (single isomer, unassigned) [Example 530]
24 | < 1 µM | Cc1cc(C(=O)N[C@H](C)c2cccc(C(F)(F)F)c2)cc(NC(=O)C(C)C)n1 (single isomer, unassigned) [Example 531]
25 | < 1 µM | CC(=O)Nc1cc(C(=O)NC(C)c2cnc(OCC(F)F)c(C)c2)ccn1 (single isomer, unassigned) [Example 551, 2-acetamido-N-(1-(6-(2,2-difluoroethoxy)-5-methylpyridin-3-yl)ethyl)isonicotinamide]
26 | < 1 µM | CCC(=O)Nc1cc(C(=O)NC(C)c2cnc(OCC(F)F)c(C)c2)ccn1 (single isomer, unassigned) [Example 552, N-(1-(6-(2,2-difluoroethoxy)-5-methylpyridin-3-yl)ethyl)-2-propionamidoisonicotinamide]
27 | < 1 µM | Cc1cc(C(C)NC(=O)c2ccnc(NC(=O)C3CC3)c2)cnc1OCC(F)F (single isomer, unassigned) [Example 553, 2-(cyclopropanecarboxamido)-N-(1-(6-(2,2-difluoroethoxy)-5-methylpyridin-3-yl)ethyl)isonicotinamide]
